Assay [1] addresses T1, ERAlpha receptor (Homo sapiens, UniProt P03372).
T1 construct: purchased PanVera
T1 sequence (P03372 1-595): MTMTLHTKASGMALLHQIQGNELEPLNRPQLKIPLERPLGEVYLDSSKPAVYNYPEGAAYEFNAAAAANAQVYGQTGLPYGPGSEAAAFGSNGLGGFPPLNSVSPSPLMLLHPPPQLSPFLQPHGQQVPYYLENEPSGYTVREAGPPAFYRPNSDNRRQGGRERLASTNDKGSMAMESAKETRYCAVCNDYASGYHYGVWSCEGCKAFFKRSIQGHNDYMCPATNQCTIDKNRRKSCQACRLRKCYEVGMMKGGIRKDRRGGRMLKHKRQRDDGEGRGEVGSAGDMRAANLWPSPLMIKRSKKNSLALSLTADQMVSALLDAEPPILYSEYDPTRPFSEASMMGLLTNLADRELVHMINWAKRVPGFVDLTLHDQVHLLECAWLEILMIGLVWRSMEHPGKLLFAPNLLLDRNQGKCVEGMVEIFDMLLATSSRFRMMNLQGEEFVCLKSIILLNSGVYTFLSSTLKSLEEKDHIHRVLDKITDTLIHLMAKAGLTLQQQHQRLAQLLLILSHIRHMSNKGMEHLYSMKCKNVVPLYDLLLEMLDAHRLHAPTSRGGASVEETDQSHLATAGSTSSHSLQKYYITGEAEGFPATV
Briefly: Competition binding assay, 3H-Estradiol, ER alpha. The note with it: IC50 converted to Ki using Cheng-Prusoff equation. Here is the method:
(§1) Competition binding assay is run in a buffer containing 50 mM Hepes, pH 7.5, 1.5 mM EDTA, 150 mM NaCl, 10% glycerol, 1 mg/ml ovalbumin and 5 mM DTT, using 0.025 μCi per well ^3H-Estradiol(NEN #NET517 at […], 1 mCi/ml), 10 ng/well ERAlpha or ERbeta receptor (PanVera). Competing compounds are added at 10 different concentrations. Non-specific binding is determined in the presence of 1 μM of 17-B Estradiol. The binding reaction (140 μl) is incubated for 4 hours at room temperature, then 70 μl of cold DCC buffer is added to each reaction (DCC buffer contains per 50 ml of assay buffer, 0.75 g of charcoal (Sigma) and 0.25 g of dextran (Pharmacia)). Plates are mixed 8 minutes on an orbital shaker at 4° C. Plates are then centrifuged at 3,000 rpm at 4° C. for 10 minutes. An aliquot of 120 μl of the mix is transferred to another 96-well, white flat bottom plate (Costar) and 175 μl of Wallac Optiphase “Hisafe 3” scintillation fluid is added to each well. Plates are sealed and shaken vigorously on an orbital shaker. After an incubation of 2.5 hrs, read plates in a Wallac Microbeta counter. The data is used to calculate an IC50 and % Inhibition at 10 μM. The Kd for ^3H-Estradiol is determined by saturation binding to ER alpha and ER beta receptors. The IC50 values for compounds are converted to K; using Cheng-Prusoff equation and the Kd determined by saturation binding assay.

Assay [2] addresses T2, ERbeta receptor (Homo sapiens, UniProt Q92731).
T2 construct: purchased PanVera
The assay can be described thus: Competition binding assay, 3H-Estradiol, ER beta. Particulars: IC50 converted to Ki using Cheng-Prusoff equation; read-out: Binding ER b Ki. Here is the method:
as §1

The test system of assay [3] is MCF-7 breast adenocarcinoma cells. Briefly: MCF-7 proliferation assay (14C-thymidine), antagonist mode. The assay is classed as cell-based. Here is the method: MCF-7 breast adenocarcinoma cells (ATCC HTB 22) are maintained in MEM (minimal essential medium, phenol red-free, Gibco BRL) supplemented with 10% fetal bovine serum (FBS) (V/V), L-glutamine (2 mM), sodium pyruvate (1 mM), HEPES ((N-[2-hydroxyethyl]piperazine-N′-[2-ethanesulfonic acid]10 mM}, non-essential amino acids (0.1 mM) and Penicillin Streptomycin(IX). Seven days prior to assay, MCF-7 cells are switched to assay media which is the same as maintenance medium except supplemented with 10% dextran-coated charcoal-stripped fetal bovine serum (DCC-FBS) assay medium in place of 10% FBS. MCF-7 cells are removed from flasks using 10× Trypsin EDTA (phenol red free, Gibco BRL) and diluted to 1× in (Ca++/Mg++ free HBSS (phenol red-free). Cells are adjusted to 80,000 cells/ml in assay medium. […] For each of the agonist plates, a basal level (media), and a maximum stimulated level (with 1 μM E2) is determined. For each of the antagonist plates, a basal level (media) and a E2 (10 pM) alone control is determined. […] The plates are incubated overnight in the same incubator and then counted on the Wallac Microbeta counter. […] For the agonist mode, an EC50 and percent of maximum E2 stimulation and concentration of maximum stimulation is calculated. […]

Assay [4] concerns Ishikawa human endometrial tumor cells. The assay can be described thus: Ishikawa cell alkaline phosphatase (PNPP) assay, antagonist mode. Type of assay: cell-based. An excerpt: Ishikawa human endometrial tumor cells are maintained in MEM (minimum essential medium, with Earle's salts and L-Glutamine, Gibco BRL, Gaithersburg, Md.), supplemented with 10% fetal bovine serum (FBS) (V/V), (Gibco BRL). One day prior to assay, growth media is changed to assay medium, DMEM/F-12 (3:1) (Dulbecco's Modified Eagle Medium: Nutrient Mixture F-12, 3:1 Mixture, phenol red-free, Gibco BRL) supplemented with 5% dextran coated charcoal stripped fetal bovine serum (DCC-FBS) (Hyclone, Logen, UT), L-Glutamine (2 mM), MEM sodium pyruvate (1 mM), HEPES (N-[2-hydroxyethyl]piperazine-N′-[2-ethanesulfonic acid]2 mM) all from Gibco BRL). After an overnight incubation, ishikawa cells are rinsed with Dulbecco's Phosphate Buffered Saline (1×) (D-PBS) without Ca^+2 and Mg^+2 (Gibco BRL), and trypsinized by a 3 minute incubation with 0.25% Trypsin/EDTA, phenol red-free (Gibco BRL). Cells are resuspended in assay medium and adjusted to 250,000 cells/ml. […] After a 20-minute incubation, plates are read on a spectophotometer at 405 nm. […] For the agonist mode, a % efficacy for each compound is calculated versus the response to Tamoxifen. For the antagonist mode, a % efficacy for each compound is calculated versus E2 (1 nM) alone.

Structures are written as SMILES.

T2 sequence (Q92731 whole entry): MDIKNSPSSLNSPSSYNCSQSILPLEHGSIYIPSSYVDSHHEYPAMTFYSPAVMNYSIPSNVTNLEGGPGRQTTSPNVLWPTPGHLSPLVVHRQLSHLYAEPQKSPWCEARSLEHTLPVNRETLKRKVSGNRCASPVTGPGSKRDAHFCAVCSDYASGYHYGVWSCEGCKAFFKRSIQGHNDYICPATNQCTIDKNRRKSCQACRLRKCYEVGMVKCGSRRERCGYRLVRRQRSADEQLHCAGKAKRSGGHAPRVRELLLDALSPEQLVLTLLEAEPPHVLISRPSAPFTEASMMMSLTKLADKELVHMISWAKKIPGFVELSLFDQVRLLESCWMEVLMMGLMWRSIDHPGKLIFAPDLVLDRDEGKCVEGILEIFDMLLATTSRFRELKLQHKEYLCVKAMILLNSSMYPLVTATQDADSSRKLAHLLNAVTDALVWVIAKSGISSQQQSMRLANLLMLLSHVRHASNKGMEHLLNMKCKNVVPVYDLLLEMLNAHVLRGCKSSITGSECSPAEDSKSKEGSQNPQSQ

Usually Ki stands for the equilibrium dissociation constant of an inhibitor or competing ligand from its target. Regarding `COc1ccc(-c2ccc3cc(O)ccc3c2Oc2ccc(OCCCC[S+]([O-])CCCC(F)(F)C(F)(F)F)cc2)cc1` (stereo not drawn) [Example 2, 6-(4-Methoxy-phenyl)-5-{4-[4-(4,4,5,5,5-pentafluoro-pentane-sulfinyl)-butoxy]-phenoxy}-naphthalen-2-ol], the Ki turned out to be 0.3 nM in assay [1] and 0.2 nM in assay [2]. In assay [3] (10 pM E2, % inhibition @ 1 μM), the “MCF-7 Antag. % Eff.” value was determined as 86%. The IC50 in assay [3] (Homo sapiens, MCF7, 10 pM E2, read-out: MCF-7 IC 50) worked out at 2.5 nM; in assay [4] (Homo sapiens, Ishikawa, E2 1 nM, read-out: Ishikawa IC 50), 6.8 nM. Moreover, the “Ishikawa Antag. % Eff.” value in assay [4] (% efficacy versus E2 (1 nM) alone) stood at 100%.

The values above are taken from patent publication US7462647B2, “Pentalfluoroalkanesulfinyl naphthalenes and related estrogen receptor modulators” (Eli Lilly and Company, priority 2003, dated 2008).
